Like-named read-outs stand apart in the source and are kept apart here.
Tests used:
[1] = test system: human vascular smooth muscle cells (SMCs); test: XTT cell proliferation assay, smooth muscle cells; format: cell-based; conditions: for IC50: XTT assay after 72 h, mean of three independent experiments, read-out: IC50, SMC proliferation-inhibitory activity
From the text: Human umbilical vein endothelial cells (HUVECs) were isolated from umbilical cords (kindly donated by the Gynecology and Obstetrics Department, Innsbruck Medical University) by enzymatic detachment using collagenase, as previously described; see Bernhard, FASEB J 17(15), 2302-4 (2003). Human umbilical vein smooth muscle cells (SMCs) were isolated from the same umbilical cords according to Chamley-Campbell, Physiol Rev 59(1), 1-61 (1979). SMCs were routinely passaged in 0.2% gelatine-coated (Sigma, Steinheim, Germany) polystyrene culture flasks (Becton Dickinson, Meylan Cedex, France) in Medium 231 (Cascade Biologics, Paisley, UK). The isolation and analysis of human umbilical cord ECs and SMCs has been approved by the Ethics Committee of the Innsbruck Medical University.
(§1) Cell proliferation was measured by the XTT cell proliferation assay (Biomol, Hamburg, Germany) as described by the manufacturer. The XTT assay is based on the ability of metabolic active cells to reduce the tetrazolium salt XTT to orange coloured compounds of formazan. The dye formed is water soluble and the dye intensity can be read at a given wavelength with a spectrophotometer. The intensity of the dye is proportional to the number of metabolic active cells. In addition to the XTT assay all proliferation-experiments were also evaluated by counting cells in a coulter counter.
as §1, with “As described above (Example 1) cell” for “Cell”, “cells.” for “cells. In addition to the XTT assay all proliferation-experiments were also evaluated by counting cells in a coulter counter.”

[2] = test system: intimal hyperplasia after balloon injury; conditions: in vivo; cited from earlier work
[3] = test system: SMCs; conditions: associated with upregulation of p21/WAF1; cited from earlier work
[4] = test system: primary human vascular endothelial cells (ECs); test: Cell viability by annexin V/propidium iodide method and FACS, ECs; format: cell-based; conditions: 48 hours
Description: (§2) Primary human vascular endothelial cells (ECs) were incubated with the indicated concentrations of leoligin for the indicated times. […] Values shown are mean values from a representative experiment performed in triplicates. […] Values shown are mean values from three independent experiments+/−S.D. The impact of leoligin on TNFalpha-induced surface expression of VCAM-1, ICAM-1, and E-selectin (E-Sel) is shown in the three diagrams in FIG. 4C. Data shown are mean fluorescence intensities (MFI) of representative experiments. […] After protein preparation, total cellular proteins were separated on polyacrylamide gels, gel were dried and analysed by exposure to x-ray films.
(§3) For detection and/or quantification of cell death, forward/sideward light scattering analysis, the AnnexinV-propidium iodide method, and staining of nuclear DNA content (cell cycle analyses) were used as described; see Bernhard FASEB J 13(14), 1991-2001 (1999).

[5] = test system: human vascular smooth muscle cells (SMCs); test: Nuclear DNA content (cell cycle) analysis, SMCs; format: cell-based; conditions: 24 hours of incubation
Description: In order to investigate the effect of leoligin on the cellular level, isolated primary human vascular smooth muscle cells (SMCs) were incubated with the indicated concentrations of leoligin for the indicated times. […] Values shown are mean values from a representative experiment performed in triplicates.
as §3

[6] = test system: VCAM-1; test: FACS analysis of TNFalpha-induced surface adhesion molecule expression on ECs; format: cell-based, human
From the text: (§4) Values shown are mean values from a representative experiment performed in triplicates.

[7] = test system: human vascular smooth muscle cells (SMCs); test: Cell death by AnnexinV-propidium iodide method and FACS, SMCs; format: cell-based; conditions: after 48 hour
Description: (§5) In order to investigate the effect of leoligin on the cellular level, isolated primary human vascular smooth muscle cells (SMCs) were incubated with the indicated concentrations of leoligin for the indicated times. […] Values shown are mean values from a representative experiment performed in triplicates. […] Values shown are mean values from three independent experiments+/−S.D. The histogram blots in FIG. 3C show the results from a DNA content analysis of control-treated or leoligin-treated SMCs after 24 hours of incubation (upper row, left histogram . . . solvent control; upper row, right histogram . . . leoligin).
as §3

[8] = test system: p27/KIP; test: Western blot of p27/KIP in SMCs; format: cell-based, human; conditions: SMCs incubated 24 hours; shift from 27 kD to 58 kD signal
Description: as §5
Western blotting was performed as previously described; see Bernhard, Cell Death Differ 8(10), 1014-21 (2001). Primary antibodies used were anti-p27/KIP-1 antibody (clone 57; BD Transduction Laboratories).

[9] = test system: venous bypass graft intimal hyperplasia; test: Mouse model for vein graft disease (vena cava interposed into carotid artery); format: in vivo
Description: Before wound closure after the transplantation, a peradventitial depot of 100 μl of 0.9% NaCl (control) or 100 μl of 100 μM leoligin in 0.9% NaCl were applied. After 4 weeks conduits were removed and subjected to morphometric analyses and to immunohistochemistry. FIG. 5B: the upper two images show a Elastica van Giesson stain of sections of the venous conduits. White arrows indicate neointimal thickness which was analysed by morphometry (see FIG. 5A). Central images display a staining for the endothelial cell CD31/PECAM-1 antigen (brown, black arrows) combined with a hematoxilin stain. […] The abbreviations “Lu” and “Li” stand for the full terms “lumen” and “liver”, respectively.
In the applied mouse model the vena cava of a donor mouse was interposed into the carotid artery of a recipient mouse. After transplantation and prior to wound closure a 100 μl depot of 0.9% NaCl (control group) or 100 μM leoligin in 0.9% NaCl (leoligin group) was placed around the adventitia of the vein graft in the recipient mouse. 4 weeks after the intervention mice were sacrificed and the interposed venae cavae were harvested for analyses. […] For details on the surgical procedure see Schachner, Eur J Cardiothorac Surg 30(3), 451-63 (2006); Schachner, Heart Surg Forum 9(1), E515-E517 (2006). Animal experiments were approved by the Commission for Animal Testing Affairs of the Austrian Ministry for Science and Research.
(§6) Following fixation in 4% paraformaldehyde and dehydration of tissues from organ culture and mouse experimentation, tissues were embedded in paraffin (venae cavae from the in vivo experiments were embedded into mouse liver prior to fixation) and sections were prepared. Immunohistochemistry was performed with the Accustain Elastica Stain (HT25) kit (Sigma-Aldrich, USA) or the En Vision+System-HRP (DAB) (DakoCytomation, Denmark) according to the manufacturers instructions. Primary antibodies used were anti-p27/KIP-1 antibody (clone 57; BD Transduction Laboratories), and anti-CD31/PECAM-1 antibody (clone JC70A, Dako Cytomation). Image analyses were performed using the Image J software of the National Institute of Health (USA).

[10] = test system: primary human vascular endothelial cells (ECs); test: Metabolic protein labelling with 35S-methionine/cysteine in ECs; format: cell-based
Description: as §2
Metabolic labelling with ^35S-methionine/cysteine was performed as previously described (Bernhard (2001), loc. cit.).

[11] = test system: human saphenous veins; test: Human saphenous vein organ culture model of intimal hyperplasia; conditions: added freshly every second day over 2 weeks
Description: as §6

[12] = test system: primary human vascular endothelial cells (ECs); test: XTT cell proliferation assay, endothelial cells; format: cell-based
From the text: as §4

[13] = test system: VCAM-1; conditions: ECs; cited from earlier work
[14] = test system: SMCs; conditions: caspase-dependent manner; cited from earlier work
[15] = 100 μl of 100 μM leoligin, 4 weeks

## C/C=C(/C)C(=O)OC[C@H]1[C@@H](Cc2ccc(OC)c(OC)c2)CO[C@@H]1c1cc(OC)c(OC)c(OC)c1 [5-methoxy-leoligin]
[1]
  IC50: 45.9 µM

## COc1cc([C@@H]2c3cc4c(cc3[C@H](O)[C@H]3COC(=O)[C@@H]23)OCO4)cc(OC)c1OC [picropodophyllin]
[2]
  intimal hyperplasia after balloon injury: inhibits intimal hyperplasia after balloon injury in vivo

## C/C=C(/C)C(=O)OC[C@H]1[C@@H](Cc2ccc(O)c(OC)c2)CO[C@@H]1c1cc(OC)c(OC)c(OC)c1 [5-methoxy-leoligin]
[1]; Homo sapiens
  IC50: 45.9 µM

## C=CCc1ccc(O)c(-c2ccc(O)c(CC=C)c2)c1 [Honokiol, honokiol]
[3]
  cell cycle in SMCs: arrest in the G1 phase of the cell cycle

## C/C=C(/C)C(=O)OC[C@H]1[C@@H](Cc2ccc(OC)c(OC)c2)CO[C@@H]1c1ccc(OC)c(OC)c1 [leoligin]
[4]
  toxic or cell death-inducing effect on ECs: no toxic or cell death-inducing effect
[5]
  cell cycle distribution (nuclear DNA content): massive accumulation of cells in the G1-phase
[6]
  TNFalpha-mediated surface expression of VCAM-1: inhibited TNFalpha-mediated surface expression of VCAM-1
[7]
  cell death (apoptosis and necrosis) in SMCs: only a marginal increase in cell death
[8]
  p27/KIP protein (Western blot): complete change in the appearance of p27/KIP protein
[9]; [15]
  endothelial layer (CD31 staining) of conduits: intact
  neointimal thickness of vein grafts: significantly reduced neointimal thickness
[9]; four weeks after the application
  p27/KIP staining of graft sections: stained positive for p27/KIP
[9]; of 7 animals per group (3 in control)
  animals with no blood flow due to thromboses after 4 weeks: 2
[9]; periadvential reservoir 100 μl of 100 μM leoligin in 0.9% NaCl, 4 weeks
  intimal hyperplasia in vivo: potently inhibited intimal hyperplasia in vivo
[10]
  protein synthesis in ECs: does not block protein synthesis
[11]; 5 μM leoligin, p=0.003
  intimal hyperplasia of saphenous veins in organ culture: completely inhibited intimal hyperplasia
[11]; 50 μM leoligin, p<0.001
  pre-existing intimal hyperplasia of saphenous veins in organ culture: even reversed pre-existing intimal hyperplasia
[1]; Homo sapiens
  IC50: 54.5 µM
[1]; result in words
  SMC proliferation (XTT assay, cell counting): significant SMC proliferation inhibitory effect
[12]
  proliferation of ECs: inhibited the proliferation of ECs

## C=CCc1ccc(O)c(-c2cc(CC=C)ccc2O)c1 [Magnolol, magnolol]
[13]
  TNFalpha-mediated VCAM-1 expression: inhibit TNFalpha-mediated VCAM-1 expression
[14]
  cell death in SMCs: induce cell death in SMCs

## COc1cc(C[C@H]2CO[C@H](c3ccc(O)c(OC)c3)[C@H]2CO)ccc1O [lariciresinol, reference compound]
[1]; Homo sapiens
  IC50: > 100 µM

## C/C=C(/C)C(=O)OC[C@H]1[C@@H](Cc2cc(OC)c(OC)c(OC)c2)CO[C@@H]1c1cc(OC)c(OC)c(OC)c1 [5,5′-dimethoxy-leoligin]
[1]; Homo sapiens
  IC50: 48.6 µM
